Measured values as given in patent US11807644B2 (PMV Pharmaceuticals, Inc., priority 2020, dated 2023).

biological target: T1, recombinant His-tag Y220C p53 DBD protein (Homo sapiens, UniProt P04637, Y220C); assay: In vitro DNA binding activity assay (TR-FRET): binding of His-tag Y220C p53 DBD to biotin-labeled consensus DNA; assay type: biochemical; details: SC150 = concentration to increase DNA binding by […], His-tag Y220C p53 DBD, biotin-labeled consensus DNA
T1 construct: recombinant His-tag Y220C p53 DBD protein (amino acids #˜94-312)

| Structure (SMILES) | Y220C SC150 (μM) |
| --- | --- |
| CN1CC[C@@H](Nc2cccc3c2cc(-c2noc(CNC(=O)c4ccn(C5(C)COC5)c4)n2)n3CC(F)(F)F)[C@@H](F)C1 [Compound 386B, N-{[3-(4-{[(3S,4R)-3-fluoro-1-methylpiperidin-4-yl]amino}-1-(2,2,2-trifluoroethyl)-1H-indol-2-yl)-1,2,4-oxadiazol-5-yl]methyl}-1-(3-methyloxetan-3-yl)-1H-pyrrole-3-carboxamide] | * (* = 0 μM ≤ SC150 < 0.1 μM) |
| CN1CC[C@@H](Nc2cccc3c2cc(-c2noc(CNc4ccn(C(C)(C)C)n4)n2)n3CC(F)(F)F)[C@@H](F)C1 [Compound 390B, 2-(5-{[(1-tert-butyl-1H-pyrazol-3-yl)amino]methyl}-1,2,4-oxadiazol-3-yl)-N-[(3S,4R)-3-fluoro-1-methylpiperidin-4-yl]-1-(2,2,2-trifluoroethyl)-1H-indol-4-amine] | * (* = 0 μM ≤ SC150 < 0.1 μM) |
| COCC(C)(C)n1cc(C(=O)NCc2nc(-c3cc4c(N[C@@H]5CCN(C)C[C@@H]5F)cccc4n3CC(F)(F)F)no2)cn1 [Compound 391B, N-{[3-(4-{[(3S,4R)-3-fluoro-1-methylpiperidin-4-yl]amino}-1-(2,2,2-trifluoroethyl)-1H-indol-2-yl)-1,2,4-oxadiazol-5-yl]methyl}-1-(1-methoxy-2-methylpropan-2-yl)-1H-pyrazole-4-carboxamide] | * (* = 0 μM ≤ SC150 < 0.1 μM) |
| Cn1ccc(C(=O)NCc2nc(-c3cc4c(N[C@@H]5CCN(C(C)(C)C)C[C@@H]5F)cccc4n3CC(F)(F)F)no2)c1 [Compound 397B, N-{[3-(4-{[(3S,4R)-1-tert-butyl-3-fluoropiperidin-4-yl]amino}-1-(2,2,2-trifluoroethyl)-1H-indol-2-yl)-1,2,4-oxadiazol-5-yl]methyl}-1-methyl-1H-pyrrole-3-carboxamide] | * (* = 0 μM ≤ SC150 < 0.1 μM) |
| Cn1ccc(C(=O)NCc2nc(-c3cc4c(N[C@H]5CCN(C(C)(C)C)C[C@H]5F)cccc4n3CC(F)(F)F)no2)c1 [Compound 398B, N-{[3-(4-{[(3R,4S)-1-tert-butyl-3-fluoropiperidin-4-yl]amino}-1-(2,2,2-trifluoroethyl)-1H-indol-2-yl)-1,2,4-oxadiazol-5-yl]methyl}-1-methyl-1H-pyrrole-3-carboxamide] | * (* = 0 μM ≤ SC150 < 0.1 μM) |
| CN1CC[C@@H](Nc2cccc3c2cc(-c2noc(CNC(=O)c4ccn(C5(C)CCOC5)c4)n2)n3CC(F)(F)F)[C@@H](F)C1 (stereo partly drawn) [Compound 401B, N-{[3-(4-{[(3S,4R)-3-fluoro-1-methylpiperidin-4-yl]amino}-1-(2,2,2-trifluoroethyl)-1H-indol-2-yl)-1,2,4-oxadiazol-5-yl]methyl}-1-(3-methyloxolan-3-yl)-1H-pyrrole-3-carboxamide] | * (* = 0 μM ≤ SC150 < 0.1 μM) |
| CC(C)(C)N1CC[C@@H](Nc2cccc3c2cc(-c2noc(CNC(=O)c4cnn(C(C)(C)C)c4)n2)n3CC(F)(F)F)[C@H](F)C1 [Compound 402B, 1-tert-butyl-N-{[3-(4-{[(3R,4R)-1-tert-butyl-3-fluoropiperidin-4-yl]amino}-1-(2,2,2-trifluoroethyl)-1H-indol-2-yl)-1,2,4-oxadiazol-5-yl]methyl}-1H-pyrazole-4-carboxamide] | * (* = 0 μM ≤ SC150 < 0.1 μM) |
| CN1CC[C@H](F)[C@H](Nc2cccc3c2cc(-c2noc(CNC(=O)c4ccn(C5(C)CCOCC5)c4)n2)n3CC(F)(F)F)C1 [Compound 403B, N-{[3-(4-{[(3R,4S)-4-fluoro-1-methylpiperidin-3-yl]amino}-1-(2,2,2-trifluoroethyl)-1H-indol-2-yl)-1,2,4-oxadiazol-5-yl]methyl}-1-(4-methyloxan-4-yl)-1H-pyrrole-3-carboxamide] | * (* = 0 μM ≤ SC150 < 0.1 μM) |
| CN1CC[C@@H](Nc2cccc3c2cc(-c2noc(CNC(=O)c4cnn(C5(C)CCOCC5)c4)n2)n3CC(F)(F)F)[C@@H](F)C1 [Compound 404B, N-{[3-(4-{[(3S,4R)-3-fluoro-1-methylpiperidin-4-yl]amino}-1-(2,2,2-trifluoroethyl)-1H-indol-2-yl)-1,2,4-oxadiazol-5-yl]methyl}-1-(4-methyloxan-4-yl)-1H-pyrazole-4-carboxamide] | * (* = 0 μM ≤ SC150 < 0.1 μM) |
| Cn1cc(C(=O)NCc2nc(-c3cc4c(N[C@@H]5CCN(C(C)(C)C)C[C@@H]5F)cccc4n3CC(F)(F)F)no2)cn1 [Compound 405B, N-{[3-(4-{[(3S,4R)-1-tert-butyl-3-fluoropiperidin-4-yl]amino}-1-(2,2,2-trifluoroethyl)-1H-indol-2-yl)-1,2,4-oxadiazol-5-yl]methyl}-1-methyl-1H-pyrazole-4-carboxamide] | * (* = 0 μM ≤ SC150 < 0.1 μM) |
| COCC(C)(C)n1cc(C(=O)NCc2nc(-c3cc4c(N[C@@H]5CCN(C(C)(C)C)C[C@@H]5F)cccc4n3CC(F)(F)F)no2)cn1 [Compound 412B, N-{[3-(4-{[(3S,4R)-1-tert-butyl-3-fluoropiperidin-4-yl]amino}-1-(2,2,2-trifluoroethyl)-1H-indol-2-yl)-1,2,4-oxadiazol-5-yl]methyl}-1-(1-methoxy-2-methylpropan-2-yl)-1H-pyrazole-4-carboxamide] | * (* = 0 μM ≤ SC150 < 0.1 μM) |

Further lines, results first:

| Y220C SC150 (μM) | Structure (SMILES) |
| --- | --- |
| * (* = 0 μM ≤ SC150 < 0.1 μM) | COCC(C)(C)n1ccc(C(=O)NCc2nc(-c3cc4c(N[C@@H]5CCN(C)C[C@@H]5F)cccc4n3CC(F)(F)F)no2)c1 [Compound 383B, N-{[3-(4-{[(3S,4R)-3-fluoro-1-methylpiperidin-4-yl]amino}-1-(2,2,2-trifluoroethyl)-1H-indol-2-yl)-1,2,4-oxadiazol-5-yl]methyl}-1-(1-methoxy-2-methylpropan-2-yl)-1H-pyrrole-3-carboxamide] |
| * (* = 0 μM ≤ SC150 < 0.1 μM) | CC(C)(C)N1CC[C@@H](Nc2cccc3c2cc(-c2noc(CNC(=O)c4ccn(C(C)(C)C)c4)n2)n3CC(F)(F)F)[C@@H](F)C1 [Compound 393B, 1-tert-butyl-N-{[3-(4-{[(3S,4R)-1-tert-butyl-3-fluoropiperidin-4-yl]amino}-1-(2,2,2-trifluoroethyl)-1H-indol-2-yl)-1,2,4-oxadiazol-5-yl]methyl}-1H-pyrrole-3-carboxamide] |
| * (* = 0 μM ≤ SC150 < 0.1 μM) | CC(C)(C)N1CC[C@@H](Nc2cccc3c2cc(-c2noc(CNC(=O)c4ccn(C(C)(C)C)c4)n2)n3CC(F)(F)F)[C@H](F)C1 [Compound 394B, 1-tert-butyl-N-{[3-(4-{[(3R,4R)-1-tert-butyl-3-fluoropiperidin-4-yl]amino}-1-(2,2,2-trifluoroethyl)-1H-indol-2-yl)-1,2,4-oxadiazol-5-yl]methyl}-1H-pyrrole-3-carboxamide] |
| ** (** = 0.1 μM ≤ SC150 < 0.5 μM) | CN1CC[C@@H](Nc2cccc3c2cc(-c2noc(CNc4ccnn4C(C)(C)C)n2)n3CC(F)(F)F)[C@@H](F)C1 [Compound 396B, 2-(5-{[(1-tert-butyl-1H-pyrazol-5-yl)amino]methyl}-1,2,4-oxadiazol-3-yl)-N-[(3S,4R)-3-fluoro-1-methylpiperidin-4-yl]-1-(2,2,2-trifluoroethyl)-1H-indol-4-amine] |
| * (* = 0 μM ≤ SC150 < 0.1 μM) | Cn1cc(C(=O)NCc2nc(-c3cc4c(N[C@H]5CCN(C(C)(C)C)C[C@H]5F)cccc4n3CC(F)(F)F)no2)cn1 [Compound 406B, N-{[3-(4-{[(3R,4S)-1-tert-butyl-3-fluoropiperidin-4-yl]amino}-1-(2,2,2-trifluoroethyl)-1H-indol-2-yl)-1,2,4-oxadiazol-5-yl]methyl}-1-methyl-1H-pyrazole-4-carboxamide] |
| * (* = 0 μM ≤ SC150 < 0.1 μM) | CN1CC[C@H](F)[C@H](Nc2cccc3c2cc(-c2noc(CNC(=O)c4cnn(C(C)(C)C)c4)n2)n3CC(F)(F)F)C1 [Compound 408B, 1-tert-butyl-N-{[3-(4-{[(3R,4S)-4-fluoro-1-methylpiperidin-3-yl]amino}-1-(2,2,2-trifluoroethyl)-1H-indol-2-yl)-1,2,4-oxadiazol-5-yl]methyl}-1H-pyrazole-4-carboxamide] |
| * (* = 0 μM ≤ SC150 < 0.1 μM) | CN1CC[C@@H](F)[C@@H](Nc2cccc3c2cc(-c2noc(CNC(=O)c4cnn(C(C)(C)C)c4)n2)n3CC(F)(F)F)C1 [Compound 409B, Tert-butyl-N-[[3-[4-[[(3S,4R)-4-fluoro-1-methyl-3-piperidyl]amino]-1-(2,2,2-trifluoroethyl)indol-2-yl]-1,2,4-oxadiazol-5-yl]methyl]pyrazole-4-carboxamide] |
| * (* = 0 μM ≤ SC150 < 0.1 μM) | COCC(C)(C)n1cc(C(=O)NCc2nc(-c3cc4c(N[C@H]5CCN(C(C)(C)C)C[C@H]5F)cccc4n3CC(F)(F)F)no2)cn1 [Compound 413B, N-{[3-(4-{[(3R,4S)-1-tert-butyl-3-fluoropiperidin-4-yl]amino}-1-(2,2,2-trifluoroethyl)-1H-indol-2-yl)-1,2,4-oxadiazol-5-yl]methyl}-1-(1-methoxy-2-methylpropan-2-yl)-1H-pyrazole-4-carboxamide] |
| * (* = 0 μM ≤ SC150 < 0.1 μM) | CN1CC[C@H](F)[C@H](Nc2cccc3c2cc(-c2noc(CNC(=O)c4ccn(C(C)(C)C)c4)n2)n3CC(F)(F)F)C1 [Compound 414B, 1-tert-butyl-N-{[3-(4-{[(3R,4S)-4-fluoro-1-methylpiperidin-3-yl]amino}-1-(2,2,2-trifluoroethyl)-1H-indol-2-yl)-1,2,4-oxadiazol-5-yl]methyl}-1H-pyrrole-3-carboxamide] |
| * (* = 0 μM ≤ SC150 < 0.1 μM) | CN1CC[C@@H](F)[C@@H](Nc2cccc3c2cc(-c2noc(CNC(=O)c4ccn(C(C)(C)C)c4)n2)n3CC(F)(F)F)C1 [Compound 415B, 1-tert-butyl-N-{[3-(4-{[(3S,4R)-4-fluoro-1-methylpiperidin-3-yl]amino}-1-(2,2,2-trifluoroethyl)-1H-indol-2-yl)-1,2,4-oxadiazol-5-yl]methyl}-1H-pyrrole-3-carboxamide] |
